Twelve molecules from patent publication US8110585B2, “Bicyclic compound and pharmaceutical use thereof” (Takeda Pharmaceutical Company Limited, priority 2007, dated 2012) can be followed below.

Data set [1] has as its target T1, human melatonin 2 receptors (human MT2 receptors) (Homo sapiens, UniProt P49286).
T1 construct: expressed in transfected cells; membrane fraction
T1 sequence (P49286 1-362): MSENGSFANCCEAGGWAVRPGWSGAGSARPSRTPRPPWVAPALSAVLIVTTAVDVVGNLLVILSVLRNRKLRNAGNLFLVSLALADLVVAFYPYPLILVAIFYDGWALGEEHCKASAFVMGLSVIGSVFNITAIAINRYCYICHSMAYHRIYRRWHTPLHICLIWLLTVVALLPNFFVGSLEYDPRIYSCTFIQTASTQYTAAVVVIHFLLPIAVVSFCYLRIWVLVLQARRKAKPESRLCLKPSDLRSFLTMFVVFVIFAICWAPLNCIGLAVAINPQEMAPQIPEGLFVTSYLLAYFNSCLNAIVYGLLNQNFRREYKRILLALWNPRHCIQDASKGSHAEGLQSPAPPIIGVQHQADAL
The experiment in a line: Melatonin receptor binding inhibitory test, 2-[125I] Iodomelatonin, MT2. The conditions noted are these: membrane fraction of CHO-hMT2 cells, 25° C. for 2.5 hr, read-out: binding inhibitory activity as IC50 value for MT2. The procedure:
(§1) Melatonin Receptor Binding Inhibitory Test
(2) Preparation of CHO-hMT2 Cells Expressing Human Melatonin 2 Receptors
A cDNA fragment (SEQ ID NO: 2) encoding full-length of human melatonin 2 receptors (human MT2 receptors) was incorporated into expression vector pCMV-Script (Stratagene, #212220) to give the plasmid that was pCMV-human MT2 receptors expression vector for animal cell expression. CHO-K1 cells (ATCC, #CCL-61) were plated at the concentration of 1.5×10^5 cells/cm^2 in a 6 well plate (ASAHI TECHNO GLASS), and cultured under the conditions of 37° C., 5% CO2 for 24 hr. For gene transfection, solution obtained by blending pCMV-human MT2 receptors expression vector (1.9 μg), Lipofectamine Transfection Reagent (Invitrogen, #18324-012) (11.3 μL) and Minimum Essential Medium Eagle (MEM) medium (Sigma, M8042) (93.8 μL), and reacting at room temperature for 20 min was added to the cells per one well. The transfected cells were cultured in MEM medium containing 10% FBS (Life Technology) and 300 μg/mL Geneticin (GIBCO, #10131), and the cell line that stably expressed the plasmid gene was selected. By a receptor binding assay using 2-[^125I] Iodomelatonin, CHO-hMT2 cell line showing specific binding of 2-[^125I] Iodomelatonin was selected from the obtained clones.
(§2) (3) Preparation of Cellular Membrane Fraction of CHO Cell (CHO-hMelR7 and CHO-hMT2) Stably Expressing Human MT1 and MT2 Receptors
(§3) CHO-hMelR7 and CHO-hMT2 cells were plated using Cellfactory (Nunc, #170009) under the conditions of 1×10^8 cells/2000 mL/flask. The cells were grown to confluent, and recovered by the following method. As the medium for CHO-hMelR7 and CHO-hMT2, MEM a containing 10% FBS and penicillin/streptomycin was used. […]
(§4) The medium was discarded, cells were washed twice with 200 mL of EDTA/PBS(−), 200 mL of EDTA/PBS(−) was further added, and the cells were stood still at room temperature for 20 min until they were released. The cells were recovered in four 50 mL tubes (Becton Dickinson, #352070), and centrifuged at 1,500 rpm for 10 min at 4° C. using a low speed cooling centrifuge (Hitachi, CF7D2). The supernatant was discarded, the pellets in the four tubes were suspended in 10 mL of PBS(−), and combined in one tube (Becton Dickinson, #352070). The mixture was further centrifuged at 1,500 rpm for 10 min at 4° C., and the obtained pellets were suspended in 20 mL of ice-cooled homogenizing buffer [10 mM NaHCO3, 5 mM EDTA, Protease inhibitor Complete (Roche), pH 7.4]. The cell suspension was homogenized 3 times using a polytron homogenizer at 20,000 rpm for 30 sec. The obtained homogenate was centrifuged (2,000 rpm, 10 min, 4° C.) using a low speed cooling centrifuge. The supernatant was recovered in an ultracentrifugation tube and ultracentrifuged (40,000 rpm, 60 min, 4° C.) using an ultracentrifuge (Beckman, L-90K). To the obtained pellets was added a suspending buffer [50 mM Tris-HCl, 1 mM EDTA, Protease inhibitor Complete (Roche), pH 7.4], and the pellets were suspended by pipetting. The protein concentration of this suspension was measured, diluted to 2 mg/mL to give cellular membrane fractions of CHO-hMelR7 and CHO-hMT2 cells. The membrane fractions were dispensed to 1.5 mL tubes (Eppendorf, #0030120.086) by 100 μL, preserved in a freezer (−80° C.) and used for a binding assay. Protein was quantified using BCA protein assay kit (Pierce) with BSA as the standard.
(§5) (4) Preparation of Membrane Fraction Suspension
(§6) Immediately before use, the membrane fractions of CHO-hMelR7 and CHO-hMT2 cells of the above-mentioned (3) were diluted 20-fold with assay buffer (50 mM Tris-HCl, pH 7.7).
(§7) (5) Preparation of 2-[^125I] Iodomelatonin Solution
(§8) 2-[^125I] Iodomelatonin (#NEX236, PerkinElmer) was diluted with the assay buffer to 400 pM for MT1 and 1 nM for MT2.
The assay buffer (80 μL) of the above-mentioned (4) was added to each well of a 96-well plate (type 3363, Corning). […]

Data set [2] has as its target T2, human melatonin 1 receptors (human MT1 receptors) (Homo sapiens, UniProt P48039).
T2 construct: expressed in transfected cells; membrane fraction
Description: Melatonin receptor binding inhibitory test, 2-[125I] Iodomelatonin, MT1. The following applies: membrane fraction of CHO-hMelR7 cells, 25° C. for 2.5 hr, read-out: binding inhibitory activity as IC50 value for MT1. As for the experimental part:
as §1
(1) Preparation of CHO-hMelR7 Cells expressing Human Melatonin 1 Receptors
A cDNA fragment (SEQ ID NO: 1) encoding full-length of human melatonin 1 receptors (human MT1 receptors) was incorporated into expression vector pAKKO-111H (former name pAKKO1.11H; Biochim Biophys Acta. Vol. 1219(2), pp. 251-259, 1994) to give plasmid pAKKO-hMelR7 for animal cell expression. CHO/dhfr-cells (ATCC, #CRL-9096) were plated at a concentration of 0.3×10^6 cells/dish in a 6 cm culture dish (Becton Dickinson), and cultured under the conditions of 37° C., 5% CO2 for 48 hr. The cells were transfected with pAKKO-hMelR7 plasmid DNA (5 μg) using Cellphect Transfection Kit (Amersham, #27-9268-01). The transfected cells were cultured in Dulbecco's modified Eagle medium (DMEM) (Sigma, #D6046) containing 10% dialyzed FBS (Biowest, #S180D), 1× Non-Essential Amino Acid (Invitrogen, #11140-050) and 50 μg/mL Gentamycin (Invitrogen, #15750-060), and the cell line that stably expressed the plasmid gene was selected. By a receptor binding assay using 2-[^125I] Iodomelatonin, CHO-hMelR7 cell line showing specific binding of 2-[^125I] Iodomelatonin was selected from the obtained clones.
as §2, §3, §4, §5, §6, §7, §8
The assay buffer (80 μL) of the above-mentioned (4) was added to each well of a 96-well plate (type 3363, Corning). Then, a test compound (compound solution diluted with DMSO to 200-fold of the final measurement concentration) was added by 2 μL. […]

Molecules are shown by their SMILES.

T2 sequence (P48039 whole entry): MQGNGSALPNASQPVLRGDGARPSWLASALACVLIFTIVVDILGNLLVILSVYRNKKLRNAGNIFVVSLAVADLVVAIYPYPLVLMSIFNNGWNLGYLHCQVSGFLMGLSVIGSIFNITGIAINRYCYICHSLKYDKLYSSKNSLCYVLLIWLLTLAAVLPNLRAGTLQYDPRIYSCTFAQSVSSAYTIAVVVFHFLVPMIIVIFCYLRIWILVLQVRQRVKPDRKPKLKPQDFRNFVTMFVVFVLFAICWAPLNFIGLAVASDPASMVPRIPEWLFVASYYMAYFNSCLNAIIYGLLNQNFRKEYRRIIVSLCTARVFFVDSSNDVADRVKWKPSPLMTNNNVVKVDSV

With `CCC(=O)NC[C@H]1C[C@@H]1c1cccc2nn(C)cc12` [Example 12, N-{[(1S,2S)-2-(2-methyl-2H-indazol-4-yl)cyclopropyl]methyl}propanamide], the melting point (in general, the temperature, or range, at which the solid turns liquid) was 79 to 80 °C. The IC50 (commonly the concentration needed to halve the response being measured) in data set [1] was not above 100 nM. In addition, in data set [2], the IC50 is not above 100 nM.
In turn, `CC(=O)NCC1CC1c1ccc(Cl)c2nn(C)cc12` (stereo not drawn) [Example 39, N-{[2-(7-chloro-2-methyl-2H-indazol-4-yl)cyclopropyl]methyl}acetamide] yielded a melting point of 153 to 155 °C. Also, the IC50 in data set [1] is not above 100 nM. Besides, the IC50 in data set [2] is not above 100 nM.
`CCC(=O)NC[C@@H]1C[C@H]1c1c(F)ccc2nn(C)cc12` (relative stereo) [Example 26, trans-N-{[2-(5-fluoro-2-methyl-2H-indazol-4-yl)cyclopropyl]methyl}propanamide] showed a melting point of 158 to 159 °C. Moreover, the IC50 in data set [1] is not above 100 nM. The IC50 in data set [2] is not above 100 nM.
`CC(=O)NC[C@@H]1C[C@H]1c1cccc2nn(C)c(F)c12` [Example 19, N-{[(1R,2R)-2-(3-fluoro-2-methyl-2H-indazol-4-yl)cyclopropyl]methyl}acetamide] showed a melting point of 138 to 139 °C. For the same molecule, the IC50 in data set [1] was not above 100 nM. Further, in data set [2], the concentration for half-maximal inhibition (IC50) was not above 100 nM.
In the case of `CCC(=O)NCC1CC1c1cccc2nc(C)nn12` (stereo not drawn) [Example 57, N-{[2-(2-methyl[1,2,4]triazolo[1,5-a]pyridin-5-yl)cyclopropyl]methyl}propanamide], the melting point was in the range of 118 to 119 °C. The IC50 in data set [1] was not above 100 nM. Moreover, the IC50 in data set [2] was not above 100 nM.
As to `CCC(=O)NC[C@@H]1C[C@H]1c1cccc2nn(C)cc12` (relative stereo) [Example 2, trans-N-{[2-(2-methyl-2H-indazol-4-yl)cyclopropyl]methyl}propanamide], the melting point lay within 104 to 106 °C. Further, in data set [1], the IC50 is not above 100 nM. In data set [2], the IC50 is not above 100 nM.
`CC(=O)NCC1CC1c1c(C#N)ccc2nn(C)cc12` (stereo not drawn) [Example 36, N-{[2-(5-cyano-2-methyl-2H-indazol-4-yl)cyclopropyl]methyl}acetamide] gave a melting point of 189 to 192 °C. In addition, the IC50 in data set [1] is not above 100 nM. Moreover, the IC50 in data set [2] is not above 100 nM.
For `CC(=O)NCC1CC1c1c(-c2ccccc2)ccc2nn(C)cc12` (stereo not drawn) [Example 34, N-{[2-(2-methyl-5-phenyl-2H-indazol-4-yl)cyclopropyl]methyl}acetamide], the melting point was in the range of 156 to 158 °C. The IC50 in data set [1] is not above 100 nM. Moreover, the IC50 in data set [2] is not above 100 nM.
`CCC(=O)NC[C@@H]1C[C@H]1c1cccn2nc(C)cc12` (relative stereo) [Example 6, trans-N-{[2-(2-methylpyrazolo[1,5-a]pyridin-4-yl)cyclopropyl]methyl}propanamide] yielded a melting point of 95 to 98 °C. Moreover, the IC50 in data set [1] is not above 100 nM. For the same molecule, in data set [2], the IC50 was not above 100 nM.
Molecule `CCC(=O)NCC1CC1c1cccc2nc(C)cn12` (stereo not drawn) [Example 53, N-{[2-(2-methylimidazo[1,2-a]pyridin-5-yl)cyclopropyl]methyl}propanamide] registered a melting point of 88 to 90 °C. Besides, the IC50 in data set [1] is not above 100 nM. The IC50 in data set [2] was not above 100 nM.
Molecule `CC(=O)NC[C@@H]1C[C@H]1c1c(F)ccc2nn(C)cc12` [Example 25, N-{[(1R,2R)-2-(5-fluoro-2-methyl-2H-indazol-4-yl)cyclopropyl]methyl}acetamide] registered a melting point of 120 °C. In addition, the IC50 in data set [1] was not above 100 nM. Besides, the IC50 in data set [2] was not above 100 nM.
Molecule `CCC(=O)NC[C@@H]1C[C@@H]1c1cccc2nn(C)cc12` (relative stereo) [Example 14, cis-N-{[2-(2-methyl-2H-indazol-4-yl)cyclopropyl]methyl}propanamide] showed a melting point of 155 to 156 °C. The IC50 in data set [1] was not above 100 nM. Further, the IC50 in data set [2] was not above 100 nM.
